# Patent publication US8501446B2 (Vertex Pharmaceuticals Incorporated, priority 2004, dated 2013)
# pKi: −log10 of the molar value.
# Experiments:
# Format in all cases: biochemical
# [1] = biological target: T1, full length Aurora-A (AA 1-403) (Homo sapiens, UniProt O14965); assay: Aurora-A inhibition assay, standard coupled enzyme system; conditions: average Ki if more than one value determined
# T1 construct: full length Aurora-A (AA 1-403)
# T1 sequence (O14965 1-403): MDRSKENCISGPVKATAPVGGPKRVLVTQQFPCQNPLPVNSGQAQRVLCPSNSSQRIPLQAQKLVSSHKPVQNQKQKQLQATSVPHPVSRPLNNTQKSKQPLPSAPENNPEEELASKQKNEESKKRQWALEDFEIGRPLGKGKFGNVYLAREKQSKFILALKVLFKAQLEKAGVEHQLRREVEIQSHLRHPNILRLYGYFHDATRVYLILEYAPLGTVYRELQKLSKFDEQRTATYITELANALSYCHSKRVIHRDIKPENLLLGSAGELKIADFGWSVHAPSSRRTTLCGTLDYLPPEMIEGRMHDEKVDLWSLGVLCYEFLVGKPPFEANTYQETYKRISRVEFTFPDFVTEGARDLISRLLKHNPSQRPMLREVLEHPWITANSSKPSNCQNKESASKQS
# JAK2 = JAK2 (Homo sapiens, UniProt O60674); assay: JAK2 inhibition assay (radioactive enzyme assay, as for JAK3); conditions: average Ki if more than one value determined
# Protocol: (§1) Compounds were screened for their ability to inhibit JAK3 using a standard radioactive enzyme assay. 1.5 μL/well of a DMSO stock containing serial dilutions of a compound of the present invention (concentrations ranging from 667 μM to 46 nM) was placed in a 96 well polycarbonate plate. 50 μL per well of kinase buffer (100 mM HEPES (pH 7.4), 10 mM MgCl2, 25 mM NaCl, 1 mM DTT, and 0.01% bovine serum albumin (BSA)) containing 2 μM poly(Glu)4Tyr and 10 μM ATP was also added to the plate. To initiate the reaction, 50 μL kinase buffer containing 2 nM JAK3 enzyme was added. Final ATP concentration was 5 μM [γ-^33P] ATP (200 μCi ^33P ATP/μmol ATP (Perkin Elmer, Cambridge, Mass.). After 20 minutes at room temperature (25° C.), the reaction was stopped by adding 50 μL 20% trichloroacetic acid (TCA)/0.4 mM ATP to each well. The entire content of each well was then transferred to a 96 well glass fiber filter plate using a TomTek Cell Harvester. After washing, 60 μL scintillation fluid was added and ^33P incorporation detected using a Perkin Elmer TopCount. After removing mean background values for all of the data points the data was fit using Prism software to obtain a Ki(app). Inhibition of JAK2 was measured as above except that final poly(Glu)4Tyr concentration was 15 μM and final ATP concentration was 12 μM.
# JAK3 = biological target: T2, JAK3 (Homo sapiens, UniProt P52333); assay: JAK3 inhibition assay (standard radioactive enzyme assay); conditions: average Ki if more than one value determined
# T2 sequence (P52333 1-1124): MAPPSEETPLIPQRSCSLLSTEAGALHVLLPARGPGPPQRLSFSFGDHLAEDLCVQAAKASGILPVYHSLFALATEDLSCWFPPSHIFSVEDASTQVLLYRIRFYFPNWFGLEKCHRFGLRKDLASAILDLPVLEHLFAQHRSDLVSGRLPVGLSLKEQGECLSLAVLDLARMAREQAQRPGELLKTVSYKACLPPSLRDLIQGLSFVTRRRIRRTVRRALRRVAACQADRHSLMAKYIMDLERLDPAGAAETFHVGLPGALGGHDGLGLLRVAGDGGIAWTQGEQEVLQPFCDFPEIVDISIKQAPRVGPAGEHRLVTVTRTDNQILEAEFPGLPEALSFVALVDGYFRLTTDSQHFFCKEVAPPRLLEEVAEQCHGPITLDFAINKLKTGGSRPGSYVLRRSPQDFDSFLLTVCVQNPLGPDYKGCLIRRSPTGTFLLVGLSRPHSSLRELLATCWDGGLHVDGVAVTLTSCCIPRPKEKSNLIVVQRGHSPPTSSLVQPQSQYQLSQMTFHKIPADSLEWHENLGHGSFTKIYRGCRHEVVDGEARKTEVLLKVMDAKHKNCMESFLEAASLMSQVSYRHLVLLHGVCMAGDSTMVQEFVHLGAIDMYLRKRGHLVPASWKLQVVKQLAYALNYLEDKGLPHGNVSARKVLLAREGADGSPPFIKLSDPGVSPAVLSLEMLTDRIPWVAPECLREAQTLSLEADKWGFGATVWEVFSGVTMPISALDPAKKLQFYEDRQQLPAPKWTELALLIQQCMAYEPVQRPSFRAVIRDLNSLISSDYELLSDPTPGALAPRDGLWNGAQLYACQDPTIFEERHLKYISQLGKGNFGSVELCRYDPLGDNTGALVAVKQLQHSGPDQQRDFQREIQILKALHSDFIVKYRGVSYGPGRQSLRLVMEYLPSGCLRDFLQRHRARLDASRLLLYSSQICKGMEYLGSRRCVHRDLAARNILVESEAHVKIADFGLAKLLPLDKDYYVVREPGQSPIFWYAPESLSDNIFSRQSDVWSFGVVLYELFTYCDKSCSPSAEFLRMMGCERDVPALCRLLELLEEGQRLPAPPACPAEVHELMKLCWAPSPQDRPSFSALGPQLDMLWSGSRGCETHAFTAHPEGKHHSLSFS
# Protocol: as §1
# ROCK I (AA 6-553) = biological target: T3, ROCK I (AA 6-553) (Homo sapiens, UniProt Q13464); assay: ROCK inhibition assay, standard coupled enzyme system ("Enzyme"); conditions: enzyme-linked assay
# T3 construct: ROCK I (AA 6-553)
# In short: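 ROCK I (AA 6-553) at 45 nM and 30 °C with 45 μM ATP and 200 μM peptide, in 100 mM HEPES pH 7.5, 10 mM MgCl2, 25 mM NaCl, 2 mM DTT, 1.5% DMSO. ADP output read by a PK/LDH coupled system: 2.5 mM PEP, 350 μM NADH, 30 μg/ml PK, 10 μg/ml LDH.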
# T3 sequence (Q13464 6-553, species assumed): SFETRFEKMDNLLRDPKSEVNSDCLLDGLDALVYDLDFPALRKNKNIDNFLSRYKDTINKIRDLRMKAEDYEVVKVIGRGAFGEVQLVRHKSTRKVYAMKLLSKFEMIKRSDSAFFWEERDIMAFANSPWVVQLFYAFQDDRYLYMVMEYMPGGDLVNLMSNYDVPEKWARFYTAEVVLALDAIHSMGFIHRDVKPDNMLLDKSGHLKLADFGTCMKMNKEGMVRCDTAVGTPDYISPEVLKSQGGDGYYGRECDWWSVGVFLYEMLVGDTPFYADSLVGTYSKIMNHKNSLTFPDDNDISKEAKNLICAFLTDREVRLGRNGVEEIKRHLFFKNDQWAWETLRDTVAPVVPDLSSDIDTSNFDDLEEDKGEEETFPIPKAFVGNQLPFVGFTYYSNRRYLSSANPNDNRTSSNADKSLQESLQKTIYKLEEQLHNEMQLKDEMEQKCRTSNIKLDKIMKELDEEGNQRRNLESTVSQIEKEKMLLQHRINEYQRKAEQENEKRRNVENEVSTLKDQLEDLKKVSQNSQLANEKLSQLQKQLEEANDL
# Chain of JAK2 (O60674 whole entry, species assumed): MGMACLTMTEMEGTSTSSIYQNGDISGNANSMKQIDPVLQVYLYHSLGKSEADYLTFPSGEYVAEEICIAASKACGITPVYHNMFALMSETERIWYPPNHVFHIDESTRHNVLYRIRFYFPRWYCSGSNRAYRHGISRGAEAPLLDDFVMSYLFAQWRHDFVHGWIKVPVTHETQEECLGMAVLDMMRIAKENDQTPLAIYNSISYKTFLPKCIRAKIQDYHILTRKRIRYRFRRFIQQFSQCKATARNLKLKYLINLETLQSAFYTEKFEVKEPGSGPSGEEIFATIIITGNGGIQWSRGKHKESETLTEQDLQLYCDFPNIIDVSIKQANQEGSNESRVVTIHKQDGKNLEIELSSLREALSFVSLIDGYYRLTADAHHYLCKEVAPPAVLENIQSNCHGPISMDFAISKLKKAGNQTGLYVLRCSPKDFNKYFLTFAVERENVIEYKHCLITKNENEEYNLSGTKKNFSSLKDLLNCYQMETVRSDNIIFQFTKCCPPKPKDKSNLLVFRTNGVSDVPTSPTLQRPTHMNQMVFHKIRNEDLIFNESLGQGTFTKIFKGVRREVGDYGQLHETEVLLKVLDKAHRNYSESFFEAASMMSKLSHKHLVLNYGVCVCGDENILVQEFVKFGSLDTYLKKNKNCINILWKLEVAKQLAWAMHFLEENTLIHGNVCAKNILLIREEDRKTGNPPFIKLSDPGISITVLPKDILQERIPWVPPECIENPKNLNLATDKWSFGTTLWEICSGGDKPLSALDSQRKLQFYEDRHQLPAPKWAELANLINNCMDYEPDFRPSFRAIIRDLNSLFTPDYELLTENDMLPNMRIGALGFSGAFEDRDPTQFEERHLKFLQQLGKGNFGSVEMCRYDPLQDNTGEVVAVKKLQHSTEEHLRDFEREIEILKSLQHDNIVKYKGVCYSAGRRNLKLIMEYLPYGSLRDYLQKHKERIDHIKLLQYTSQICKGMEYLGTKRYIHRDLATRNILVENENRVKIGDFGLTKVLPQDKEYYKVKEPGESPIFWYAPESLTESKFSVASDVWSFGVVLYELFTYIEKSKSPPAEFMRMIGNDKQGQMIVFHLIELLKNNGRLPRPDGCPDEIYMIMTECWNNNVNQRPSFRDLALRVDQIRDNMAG
pKi [1],pKi (JAK2),pKi (JAK3),pKi (ROCK I (AA 6-553)),Compound
5.30 to 6.30,> 6.30,> 6.30,5.30 to 6.30,CC(=O)N1[C@H](C)CN(c2cccc(-c3c[nH]c4ncc(NC(=O)C5=CCCC5)cc34)n2)C[C@@H]1C [Compound 157]
5.30 to 6.30,> 6.30,> 6.30,5.30 to 6.30,CC(=O)N1[C@H](C)CN(c2cccc(-c3c[nH]c4ncc(NC(=O)c5cccc(C#N)c5)cc34)n2)C[C@@H]1C [Compound 179]
> 6.30,> 6.30,> 6.30,> 6.30,N#Cc1cc(-c2c[nH]c3ncc(Cl)cc23)nc(N2CCCNCC2)c1 [Compound 151]
5.30 to 6.30,> 6.30,> 6.30,5.30 to 6.30,C[C@H](CO)Nc1cccc(-c2c[nH]c3ncc(Cl)cc23)n1 [Compound 102]
5.30 to 6.30,> 6.30,> 6.30,5.30 to 6.30,CC(=O)N1[C@H](C)CN(c2cccc(-c3c[nH]c4ncc(NC(=O)c5cccs5)cc34)n2)C[C@@H]1C [Compound 182]
5.30 to 6.30,> 6.30,> 6.30,5.30 to 6.30,COCC(=O)Nc1cnc2[nH]cc(-c3cccc(N4C[C@@H](C)N(C(C)=O)[C@@H](C)C4)n3)c2c1 [Compound 170]
5.30 to 6.30,> 6.30,> 6.30,5.30 to 6.30,CCC(=O)Nc1cnc2[nH]cc(-c3cccc(N4C[C@@H](C)N(C(C)=O)[C@@H](C)C4)n3)c2c1 [Compound 114]
5.30 to 6.30,> 6.30,> 6.30,5.30 to 6.30,CN(C)c1cccc(-c2c[nH]c3ncc(Cl)cc23)n1 [Compound 122]
5.30 to 6.30,> 6.30,> 6.30,5.30 to 6.30,C=C(C)C(=O)Nc1cnc2[nH]cc(-c3cccc(N4C[C@@H](C)N(C(C)=O)[C@@H](C)C4)n3)c2c1 [Compound 154]
5.30 to 6.30,> 6.30,> 6.30,> 6.30,CC(=O)N1[C@H](C)CN(c2cccc(-c3c[nH]c4ncc(NC(=O)/C=C/Cl)cc34)n2)C[C@@H]1C [Compound 192]
5.30 to 6.30,< 5.30,< 5.30,5.30 to 6.30,CC(=O)N1[C@H](C)CN(c2cccc(-c3c[nH]c4ncc(C(=O)N5C[C@@H](C)N[C@@H](C)C5)cc34)n2)C[C@@H]1C [Compound 52]
5.30 to 6.30,> 6.30,> 6.30,5.30 to 6.30,CC(=O)N1[C@H](C)CN(c2cccc(-c3c[nH]c4ncc(NC(=O)CCN5CCOCC5)cc34)n2)C[C@@H]1C [Compound 121]
> 6.30,> 6.30,> 6.30,5.30 to 6.30,COC(=O)c1ccc(NCc2ccccc2)nc1-c1c[nH]c2ncc(Cl)cc12 [Compound 45]
> 6.30,> 6.30,> 6.30,5.30 to 6.30,CC(=O)N1[C@H](C)CN(c2nc(-c3c[nH]c4ncc(Cl)cc34)ccc2N)C[C@@H]1C [Compound 76]
5.30 to 6.30,> 6.30,> 6.30,5.30 to 6.30,CC(=O)N1[C@H](C)CN(c2cccc(-c3c[nH]c4ncc(NC(=O)C5CCCCC5)cc34)n2)C[C@@H]1C [Compound 158]
> 6.30,> 6.30,> 6.30,5.30 to 6.30,O=C(O)c1ccc(-c2c[nH]c3ncc(Cl)cc23)nc1NCc1ccccc1 [Compound 42]
> 6.30,> 6.30,> 6.30,–,Clc1cnc2[nH]cc(-c3cccc(CNc4ccccc4)c3)c2c1 [Compound 186]
5.30 to 6.30,< 5.30,5.30 to 6.30,–,CC(=O)N1[C@H](C)CN(c2cccc(-c3c[nH]c4ncc(C(=O)N5CCNCC5)cc34)n2)C[C@@H]1C [Compound 56]
–,> 6.30,> 6.30,5.30 to 6.30,CCOC(=O)N1CCCN(c2cccc(-c3c[nH]c4ncc(Cl)cc34)n2)CC1 [Compound 84]
